Reference: patent publication US7910557B2, “Hair care product” (Maruzen Pharmaceuticals Co., Ltd., priority 2005, dated 2011)

Experiments:
[1] = molecular target: T1, testosterone 5α-reductase (Rattus norvegicus, UniProt P24008); test: Test for testosterone 5α-reductase inhibiting action (S-9 rat liver homogenate, GC quantification); assay type: biochemical
T1 construct: 75 μl of S-9 (rat liver homogenate, Oriental Yeast Co., Ltd.); tissue Oriental Yeast Co., Ltd; host or cells: rat liver S-9 homogenate
T1 sequence (P24008 1-259): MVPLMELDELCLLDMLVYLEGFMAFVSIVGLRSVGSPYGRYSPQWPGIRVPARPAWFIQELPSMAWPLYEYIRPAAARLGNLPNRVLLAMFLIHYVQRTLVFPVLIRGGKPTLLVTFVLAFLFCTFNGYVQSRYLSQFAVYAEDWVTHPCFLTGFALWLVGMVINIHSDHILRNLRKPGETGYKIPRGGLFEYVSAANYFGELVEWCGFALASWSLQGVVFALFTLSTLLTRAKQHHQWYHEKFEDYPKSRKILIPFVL

[2] = test system: Normal human head hair papilla cells; test: Test for hair papilla cell growth promoting action (MTT assay); assay type: cell-based; conditions: for Hair papilla cell growth promotion rate (%): 4 days, control = 100
Protocol: Normal human head hair papilla cells were cultured using a papilla cell growth medium (Cell Application Inc.) containing 2% fetal bovine serum (FBS) and proliferation additives, then the cells were retrieved by trypsinization. The retrieved cells were diluted to a cell concentration of 1.0×10^4 cells/ml using a DMEM medium containing 10% FBS, after which the cells were inoculated in a collagen-coated 96-well plate, at a rate of 200 μl per well, followed by incubation for 3 days. After incubation, the medium was removed and then to the wells there were added 200 μl each of a sample solution in which a respective sample had been dissolved in serum-free DMEM. The wells were then incubated for a further 4 days.
Once incubation was over, the medium was removed, and then to the wells there was added 100 μl each of MTT dissolved in serum-free DMEM (final concentration 0.4 mg/ml). After 2 hours of incubation, the blue formazan formed inside the cells was extracted with 100 μl of 2-propanol. The absorbance of the extracts was measured at a 570 nm wavelength. Turbidity was measured at the same time, as absorbance at the 650 nm wavelength. The amount of blue formazan formed was taken as the difference between the two absorbances. As a control, the same measurements were carried out for specimens in which serum-less DMEM was added instead of the sample solutions. The hair papilla cell growth promotion rate (%) was calculated from the obtained results using the formula below. Hair papilla cell growth promotion rate(%)=A/B×100
In the formula, A represents “absorbance upon sample addition”, and B represents “absorbance without sample addition”.

[3] = test system: FGF-7 gene; test: FGF-7 mRNA expression promotion in HFDPC (RT-PCR); assay type: cell-based, human; conditions: for mRNA expression promotion rate (%) FGF-7 mRNA: HFDPC, corrected by G3PDH, control = 100
Protocol: (§1) The FGF-7 growth promoting action, VEGF growth promoting action and BMP-2 growth promoting action of the corosolic acid obtained in producing examples 1 and 2 (samples 1 and 2) were tested as follows.
(§2) Human hair follicle dermal papilla cells (HFDPC) were cultured using a human hair follicle dermal papilla cells growth medium (PCGM), then the cells were retrieved by trypsinization. The retrieved cells were diluted to a cell concentration of 2×10^5 cells/ml using a DMEM medium containing 10% FBS, after which the cells were inoculated in 60 mm-diameter Petri dishes, at a rate of 5 ml, followed by incubation overnight.
(§3) Once incubation was over, the cells were changed to a serum-less DMEM medium to which the samples (sample 1 and 2) had been added after two-hour incubation, then the cells were dissolved in 1 ml of a reagent for RNA extraction (TRIzol, Invitrogen Corporation). After addition of 200 μl of chloroform to the solutions, these were centrifuged (12000 rpm, 4° C., 15 minutes) and the top RNA layer was isolated. The RNA layer was concentrated in isopropanol. The total RNA concentrated and precipitated was dissolved in a TE solution (10 mM Tris-HCl/1 mM EDTA, pH 8.0), and was taken as a total RNA standard (sequence numbers 1 to 3) used in a template of quantitative RT-PCR for measuring the mRNA expression level of the FGF-7 gene, the VEGF gene and the BMP-2 gene. […]
(§4) After synthesizing single-strand DNA from 500 ng of total RNA in a PCR apparatus (TaKaRa PCR Thermal Cycler MP, TAKARA BIO INC.), the FGF-7 gene (sequence no. 4), the VEGF gene (sequence no. 5), the BMP-2 gene (sequence no. 6), and the G3PDH gene as an internal standard were amplified by PCR reaction, from the single-strand DNA, using specific sense primers (sequence nos. 7 to 9) and antisense primers (sequence nos. 10 to 12) of the respective genes, then 10 μl of the amplified product were electrophoresed on 1.2% agarose gel. […] Then the RT-PCR products were quantitatively measured using KODAK 1D Image Analysis Software EDAS290 Version3.5. […]

[4] = test system: VEGF gene; test: VEGF mRNA expression promotion in HFDPC (RT-PCR); assay type: cell-based, human; conditions: for mRNA expression promotion rate (%) VEGF mRNA: HFDPC, corrected by G3PDH, control = 100
Protocol: as §1, §2, §3, §4

[5] = test system: BMP-2 gene; test: BMP-2 mRNA expression promotion in HFDPC (RT-PCR); assay type: cell-based, human; conditions: for mRNA expression promotion rate (%) BMP-2 mRNA: HFDPC, corrected by G3PDH, control = 100
Protocol: as §1, §2, §3, §4

[6] = sample concentration 0.06 μg/ml
[7] = sample concentration 0.25 μg/ml

IC50 ([1]; S-9 rat liver homogenate, 37° C., 30 minutes, by interpolation, read-out: IC50 (sample concentration at which the inhibition rate of testosterone 5α-reductase is 50%) (converted)): 1180 µM
SMILES: C[C@H]1[C@H](C)CC[C@]2(C(=O)O)CC[C@]3(C)C(=CC[C@@H]4[C@@]5(C)C[C@@H](O)[C@H](O)C(C)(C)[C@@H]5CC[C@]43C)[C@H]12 [Sample 1, corosolic acid]
testosterone 5α-reductase inhibiting action (in words) ([1]; conclusion from Table 1): excellent testosterone 5α-reductase inhibiting action | hair papilla cell growth promoting action (in words) ([2]; conclusion from Table 2): hair papilla cell growth promoting action | Hair papilla cell growth promotion rate (%) ([2]; sample concentration 1.56 μg/ml): 111.5 ± 2.2% | Hair papilla cell growth promotion rate (%) ([2]; sample concentration 6.25 μg/ml): 106.1 ± 1.4% | promotion of mRNA expression of the FGF-7 gene (in words) ([3]; conclusion from Table 3): promote the mRNA expression | mRNA expression promotion rate (%) FGF-7 mRNA [3, 6]: 122.9 ± 8.5% | mRNA expression promotion rate (%) FGF-7 mRNA [3, 7]: 124.8 ± 7.2% | promotion of mRNA expression of the VEGF gene (in words) ([4]; conclusion from Table 3): promote the mRNA expression | mRNA expression promotion rate (%) VEGF mRNA [4, 6]: 121.8 ± 3.5% | mRNA expression promotion rate (%) VEGF mRNA [4, 7]: 106.7 ± 4.5% | promotion of mRNA expression of the BMP-2 gene (in words) ([5]; conclusion from Table 3): promote the mRNA expression | mRNA expression promotion rate (%) BMP-2 mRNA [5, 6]: 105.3 ± 3.8% | mRNA expression promotion rate (%) BMP-2 mRNA [5, 7]: 135.3 ± 5.5%
